In this assay the target is T1, Androgen receptor (Rattus norvegicus, UniProt P15207).
T1 sequence (P15207 whole entry): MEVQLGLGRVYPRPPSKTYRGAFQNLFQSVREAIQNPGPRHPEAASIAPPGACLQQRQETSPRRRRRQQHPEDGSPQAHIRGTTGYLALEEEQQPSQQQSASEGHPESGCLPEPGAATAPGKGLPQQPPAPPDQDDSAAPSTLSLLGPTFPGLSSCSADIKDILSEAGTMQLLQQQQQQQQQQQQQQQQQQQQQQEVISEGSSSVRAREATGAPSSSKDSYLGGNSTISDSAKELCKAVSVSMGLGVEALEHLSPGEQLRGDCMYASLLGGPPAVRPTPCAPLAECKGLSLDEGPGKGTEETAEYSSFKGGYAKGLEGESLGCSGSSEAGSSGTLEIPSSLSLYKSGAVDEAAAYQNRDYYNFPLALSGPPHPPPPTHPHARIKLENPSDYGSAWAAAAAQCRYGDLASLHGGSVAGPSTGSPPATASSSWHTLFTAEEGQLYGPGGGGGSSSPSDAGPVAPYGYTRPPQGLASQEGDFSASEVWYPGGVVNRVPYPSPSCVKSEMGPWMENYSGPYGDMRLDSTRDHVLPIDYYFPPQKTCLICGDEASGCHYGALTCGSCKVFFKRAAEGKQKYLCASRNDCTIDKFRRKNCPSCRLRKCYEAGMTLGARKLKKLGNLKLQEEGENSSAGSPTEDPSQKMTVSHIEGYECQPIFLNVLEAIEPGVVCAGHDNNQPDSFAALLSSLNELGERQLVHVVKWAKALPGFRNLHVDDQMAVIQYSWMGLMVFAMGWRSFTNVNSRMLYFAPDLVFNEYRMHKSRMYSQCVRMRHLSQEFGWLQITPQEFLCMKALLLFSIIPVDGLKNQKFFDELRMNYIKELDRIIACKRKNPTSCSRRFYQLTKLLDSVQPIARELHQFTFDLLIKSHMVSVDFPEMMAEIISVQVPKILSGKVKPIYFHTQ
Kind of assay: Competitive Radioligand Displacement Assay. The note with it: pH 7.4; 4 °C. (In general: Loss of bound radioactivity is the signal in a displacement assay; it reports binding, not function.)

Molecules are shown by their SMILES.

Broadly, the Ki is the equilibrium dissociation constant of an inhibitor or competing ligand from its target. The low end stands for tighter binding, the high end for weaker binding.

`C[C@](O)(COc1ccc(I)cc1)C(=O)Nc1ccc([N+](=O)[O-])c(C(F)(F)F)c1` [(2S)-2-hydroxy-3-(4-iodophenoxy)-2-methyl-N-[4-nitro-3-(trifluoromethyl)phenyl]propanamide] yielded an inhibition constant Ki of 30 nM.

With `C[C@](O)(COc1ccc(Br)cc1)C(=O)Nc1ccc([N+](=O)[O-])c(C(F)(F)F)c1` [(2S)-3-(4-bromophenoxy)-2-hydroxy-2-methyl-N-[4-nitro-3-(trifluoromethyl)phenyl]propanamide], the inhibition constant (Ki) came out at 11.6 nM.

Molecule `CC(O)(COc1ccc([N-]C#[S+])cc1)C(=O)Nc1ccc([N+](=O)[O-])c(C(F)(F)F)c1` [(2S)-2-hydroxy-3-(4-isothiocyanatophenoxy)-2-methyl-N-[4-nitro-3-(trifluoromethyl)phenyl]propanamide] returned a Ki of 4.62 nM.

Molecule `CC(=O)Nc1ccc(SC[C@](C)(O)C(=O)Nc2ccc([N+](=O)[O-])c(C(F)(F)F)c2)cc1` [(2R)-3-[(4-acetamidophenyl)sulfanyl]-2-hydroxy-2-methyl-N-[4-nitro-3-(trifluoromethyl)phenyl]propanamide] registered a Ki of 4.9 nM.

The record behind these values is BindingDB's records for doi:10.1021/jm030336u (University of Tennessee At Memphis, 2004).
